Reference: US20120172228A1, “ALCOHOL ALKOXYLATES AS ADJUVANTS FOR AGROCHEMICAL FORMULATIONS” (SYNGENTA CROP PROTECTION, LLC, priority 2009, published 2012)

What was measured:
Format in all cases: in vivo
[1] = test system: digitaria sanguinalis (DIGSA); experiment: Adjuvant with herbicide nicosulfuron on DIGSA; details: nicosulfuron 30 or 60 g/ha; adjuvants 0.2% of spray water; 14 and 21 days after application
Experimental: (§1) In this example Sample 13 from Table 1 was compared to the oil adjuvant blend Turbocharge™. The herbicide fomesafen was applied to the weed species xanthium strumarium (XANST), setaria viridis (SETVI), abutilon theophrasti (ABUTH), and chenopodium album (CHEAL) at rates of 60 or 120 grams per hectare, using a laboratory track sprayer. Each experiment was replicated four times and the percentage damage to the weeds was assessed visually at time periods of 7, 14 and 21 days after application. Each adjuvant was applied at a rate of 0.5% of the volume of the spray water. Four effects were evaluated: pesticide rate (2 levels), adjuvant type (two levels), weed species (four levels) and days after application (three levels). […] The effect of each adjuvant was pulled out from the model and the least significant differences evaluated using a Student's t method. […]
(§2) In this example the butylene oxide adjuvant Sample 13 of Table 1 was compared to the commercial oil adjuvant blend Atplus™411F. […] Each experiment was replicated four times and the percentage damage to the weeds was assessed visually at time periods of 14 and 21 days after application. […]
(§3) In this example the responses of the butylene oxide adjuvants 13, 17, 19, 21, 22 and 23 of Table 1 were measured at an application rate of 0.2% of the volume of the spray solution used. […]

[2] = test system: chenopodium album (CHEAL), digitaria sanguinalis (DIGSA), setaria viridis (SETVI), abutilon theophrasti (ABUTH); experiment: Adjuvant with herbicide nicosulfuron, track sprayer, mean across four weed species
Experimental: as §1, with “levels). A standard simple linear model was constructed to judge the significance of these effects.” for “levels).”
as §2
In this example the rate response of the butylene oxide adjuvant Sample 13 of Table 1 was measured and compared to the adjuvant TEHP. […]

[3] = test system: chenopodium album (CHEAL); experiment: Adjuvant with herbicide nicosulfuron on CHEAL; details: nicosulfuron 30 or 60 g/ha; adjuvants 0.2% of spray water; 14 and 21 days after application
Experimental: as §1, §2, §3

[4] = test system: alopecurius myosuirides (ALOMY); experiment: Adjuvant with herbicide pinoxaden on ALOMY; details: 14 and 21 days
Experimental: as §1
(§4) In this example the responses of the adjuvants 13, 17, 19, 21, 22 and 23 were measured at an application rate of 0.2% of the volume of the spray solution used. […] In each case the experiments were replicated four times and the percentage damage to the weeds was assessed visually at time periods of 14 and 21 days after application.
In this example the response of butylene oxide sample 27 of Table 1 was measured at an application rate of 0.2% of the volume of the spray solution used. […]

[5] = test system: lolium perenne (LOLPE), alopecurius myosuirides (ALOMY), avena fatua (AVEFA); experiment: Adjuvant with herbicide pinoxaden, mean across three weed species (Example 22); details: pinoxaden 7.5, 11.25 or 15 g/ha; Sample 13 0.2%, TEHP 0.5%; 14 and 21 days
Experimental: In this example Sample 13 from Table 1 was compared to the oil adjuvant blend Turbocharge™. The herbicide fomesafen was applied to the weed species xanthium strumarium (XANST), setaria viridis (SETVI), abutilon theophrasti (ABUTH), and chenopodium album (CHEAL) at rates of 60 or 120 grams per hectare, using a laboratory track sprayer. Each experiment was replicated four times and the percentage damage to the weeds was assessed visually at time periods of 7, 14 and 21 days after application. Each adjuvant was applied at a rate of 0.5% of the volume of the spray water. Four effects were evaluated: pesticide rate (2 levels), adjuvant type (two levels), weed species (four levels) and days after application (three levels). A standard simple linear model was constructed to judge the significance of these effects. […] A model was fitted using multiple linear regression using the statistics package JMP (SAS group). The effect of each adjuvant was pulled out from the model and the least significant differences evaluated using a Student's t method. […]
as §4, with “response” for “responses”, “butylene oxide adjuvant 13 of Table 1 was” for “adjuvants 13, 17, 19, 21, 22 and 23 were”

CCCCC(CC)COP(=O)(OCC(CC)CCCC)OCC(CC)CCCC (stereo not shown) [TEHP, tris 2-ethylhexyl phosphate] was tested, and the “mean efficacy (percentage damage to the weeds), DIGSA” value [1] was 69.17; A %, the “mean efficacy (percentage damage to the weeds), All weeds” value ([2]; nicosulfuron 30 or 60 g/ha, adjuvants 0.2% of spray water, 14 and 21 days after application) was 58.12; B % and the Mean % kill ([2]; nicosulfuron 30 to 60 g/ha, adjuvant rate 0.2% w/v, across four weed species, 14 and 21 days) was 58.12%. The “mean efficacy (percentage damage to the weeds), CHEAL” value [3] was 68.33; B %, the “mean efficacy (percentage damage to the weeds), ALOMY” value ([4]; pinoxaden 7.5, 11.25 or 15 g/ha, Sample 13 0.2%, TEHP 0.5%) was 43.33; A % and the “mean efficacy (percentage damage to the weeds), ALOMY” value ([4]; pinoxaden 7.5 or 15 g/ha, butylene oxide adjuvants 0.2%, TEHP 0.5% v/v) was 68.75; AB %. The “mean efficacy (percentage damage to the weeds), All weeds” value [5] was 59.91; A %.
